Common to all, as to type: cell-based
The test system of assay [1] is Colo-205. In words: CTG (CellTiter-Glo) screening assay. The note with it: Homo sapiens. The text has this: (§1) Identification of tumor types that are the most sensitive to the KSP inhibitors of the present invention can be accomplished using an unbiased approach that uses several cell-based assays. The assays chosen were as follows: • CellTiter-Glo®. This is an assay designed to measure ATP concentration in a cell culture, and can be correlated to cell number. Briefly CellTiter-Glo® (Promega Corporation) is a homogeneous method using the single CellTiter-Glo® reagent to detect ATP wherein ATP in the assay drives the activity of a thermostable luciferase to create a luminescent signal which can then be measured and correlated with the number of viable cells. Briefly, for adherent cells, 1,000 to 5,000 cells/well were plated in 96-well plates (100 μl/well) and let to adhere for 24 hours before being treated with drug. For non-adherent cells, 1,000 to 10,000 cells/well were plated in 96-well plates (100 μl/well) and immediately treated with drug. Drug dilutions were prepared in DMSO at 1000 times the final concentration. These dilutions were then diluted 1/100 in growth media before being added to the cells (11 μl/well) to achieve the desired final concentration. After 48 h in a 37° C. tissue culture incubator, the plates were processed for the CellTiter-Glo®assay according to the manufacturer's instructions. Protocol for a 72 hour cell proliferation assay: The 72 hour assay was performed the same way as the 48 hour assay except for the following modifications: For adherent cells, 500 to 5,000 cells/well were plated in 96-well plates (90 μl/well cell growth media) and left to adhere for 24 hours before being treated with drug. For non-adherent cells, 1,000 to 10,000 cells/well were plated in 96-well plates (90 μl/well cell growth media) and immediately treated with drug. Data values presented represent the concentration of test compound required for a 50% reduction in growth. • LDH release. The Cytotoxicity Detection KitPLUS (LDH) assay (Roche Diagnostics, Manheim, Germany) measures the amount of LDH released in the media by dying cells; LDH catalyzes the conversion of lactate into pyruvate. The enzymatic reaction is coupled to a chemical reaction that uses a tetrazolium salt to form a formazan that is red and can be detected by its absorbance at 490 nm. This assay measures the amount of cell death after drug treatment. Cells were plated at 10,000 cells/well in 96-well plates (100 μl/well). Adherent cells were let to adhere for 24 hours before being treated with drug, whereas non-adherent cells were immediately treated with drug. Drug dilutions were prepared in DMSO at 1000 times the final concentration. These dilutions were then diluted 1/100 in growth media before being added to the cells (11 μl/well) to achieve the desired final concentration. After 48 h in a 37° C. tissue culture incubator, the plates were processed for the Cytotoxicity Detection KitPLUS (LDH) assay according to the manufacturer's instructions. The media only values were subtracted from all the data points before analysis. Data values presented correspond to the compound concentration wherein LDH output is at half maximal level. • Caspase-Glo® 3/7. The Caspase-Glo® 3/7 Assay (Promega Corporation) is a homogeneous luminescent assay that measures caspase-3/7 activities. The assay provides a proluminescent caspase-3/7 DEVD-aminoluciferin substrate and a thermostable luciferase in a reagent optimized for caspase-3/7 activity, luciferase activity and cell lysis. Adding the single Caspase-Glo® 3/7 Reagent results in cell lysis, followed by caspase cleavage of the substrate. This liberates free aminoluciferin, which is consumed by the luciferase, generating a luminescent signal. The signal is proportional to caspase-3/7 activity. Data values presented correspond to the compound concentration wherein caspase 3/7 activity is at half maximal level.

In the next assay the test system is HT29. Kind of assay: CTG (CellTiter-Glo) screening assay. Conditions: Homo sapiens, HT-29.
From the text: as §1
For orientation: ATP-based viability assays read luminescence as a measure of living cells.

The test system of assay [2] is MV4; 11. Kind of assay: CTG (CellTiter-Glo) screening assay. Conditions: Homo sapiens.
From the text: as §1

In another assay the test system is T47-D. Kind of assay: CTG (CellTiter-Glo) screening assay. Conditions: Homo sapiens, T47D.
From the text: as §1

The test system of assay [3] is Colo-205. In words: LDH release assay. Conditions: Homo sapiens. The text has this:
(§2) Identification of tumor types that are the most sensitive to the KSP inhibitors of the present invention can be accomplished using an unbiased approach that uses several cell-based assays. The assays chosen were as follows: • CellTiter-Glo®. This is an assay designed to measure ATP concentration in a cell culture, and can be correlated to cell number. Briefly CellTiter-Glo® (Promega Corporation) is a homogeneous method using the single CellTiter-Glo® reagent to detect ATP wherein ATP in the assay drives the activity of a thermostable luciferase to create a luminescent signal which can then be measured and correlated with the number of viable cells. Briefly, for adherent cells, 1,000 to 5,000 cells/well were plated in 96-well plates (100 μl/well) and let to adhere for 24 hours before being treated with drug. For non-adherent cells, 1,000 to 10,000 cells/well were plated in 96-well plates (100 μl/well) and immediately treated with drug. Drug dilutions were prepared in DMSO at 1000 times the final concentration. These dilutions were then diluted 1/100 in growth media before being added to the cells (11 μl/well) to achieve the desired final concentration. After 48 h in a 37° C. tissue culture incubator, the plates were processed for the CellTiter-Glo®assay according to the manufacturer's instructions. Protocol for a 72 hour cell proliferation assay: The 72 hour assay was performed the same way as the 48 hour assay except for the following modifications: For adherent cells, 500 to 5,000 cells/well were plated in 96-well plates (90 μl/well cell growth media) and left to adhere for 24 hours before being treated with drug. For non-adherent cells, 1,000 to 10,000 cells/well were plated in 96-well plates (90 μl/well cell growth media) and immediately treated with drug. Data values presented represent the concentration of test compound required for a 50% reduction in growth. • LDH release. […] The enzymatic reaction is coupled to a chemical reaction that uses a tetrazolium salt to form a formazan that is red and can be detected by its absorbance at 490 nm. […]
In general terms: Release of lactate dehydrogenase indicates damage to the cell membrane.

Assay [4] relates to MV4; 11. Kind of assay: LDH release assay. Conditions: Homo sapiens; MV4;11, 48 h.
From the text: as §2

For orientation: GI50 means the concentration at which growth is held to half of that of the control. Lower therefore signals greater sensitivity of the cells. The term pEC50 denotes the negative decadic logarithm of the EC50, by convention in mol/L.

Each structure is given as a SMILES string. pEC50: −log10 of the molar value. Bounds are passed on as bounds.

Turning to `CC(C)(C)[C@H](c1nc(-c2cc(F)ccc2F)cn1Cc1ccccc1)N(CC[C@H](N)CF)C(=O)CO` [Compound IIa], the GI50 is above 5 nM in the assay with Colo-205 [1] (Colo-205, 24 h); 0.18 nM in the assay with Colo-205 [1] (Colo-205, 48 h); 0.19 nM in the assay on Colo-205 [1] (Colo-205, 72 h); above 5 nM with HT29 (HT29, 24 h); above 5 nM with HT29 (HT29, 48 h); 0.21 nM in the assay with HT29 (HT29, 72 h). Moreover, the GI50 was 0.05 nM in the assay on MV4; 11 [2] (MV4;11, 24 h); 0.04 nM in the assay on MV4; 11 [2] (MV4;11, 48 h); 0.04 nM in the assay on MV4; 11 [2] (MV4;11, 72 h); above 5 nM in the assay with T47-D (24 h); above 5 nM with T47-D (48 h); 0.45 nM in the assay with T47-D (72 h). Further, the pEC50 in the assay on Colo-205 [3] (Colo-205, 48 h) was 9.96; in the assay with Colo-205 [3] (Colo-205, 72 h), 9.80; in the assay on MV4; 11 [4], 10.52.

Source of the values: patent US8252832B2, “Kinesin inhibitors as cancer therapeutics” (Novartis AG, priority 2007, dated 2012).
